Test results: article PMC11016601, “Exploring the bioaccessibility and intestinal absorption of major classes of pure phenolic compounds using in vitro simulated gastrointestinal digestion” (Heliyon, 2024)
Values after ≈ are worked out from the molar mass of the structure shown. Values joined by “and” are separate entries in the source; they are usually repeats but may differ in a detail not shown here. Equal entries are not always repeated. Where two headings read alike, the source gives them in different places. Marks after values point to notes of the source that are not given here.

Assays:
[1] = In vitro simulated gastrointestinal digestion (SGD, INFOGEST 2.0): concentration and bioaccessibility by UHPLC-DAD-MSn; conditions: for Bioaccessibility (%), initial solution (IS): reference
Procedure: Preliminary solubility tests in different solvents, namely water, sodium phosphate buffer (26.8 mM, pH 6.1), ethanol, and also a mixture of ethanol with both water and sodium phosphate buffer, were carried out for each PC (data not shown), to prevent erroneous data arising from compounds precipitation. Ethanol percentages used in these preliminary solubility tests were 10, 15, and 20% (v/v).
Each PC solubilized in ethanol:water (15% v/v) was then submitted to an in vitro SGD (INFOGEST 2.0), according to a standardized protocol (Fig. 2). In order to determine whether the interaction between the compounds and enzymes led to an underestimation of their content, each PC solution was submitted to the same digestion procedure, replacing the enzyme solutions with water, which were designed as controls, henceforth this will be the term used. Each sample and control were submitted to three independent in vitro digestion simulations, and after each digestion phase, a sample/control was collected and further analyzed and quantified by UHPLC-DAD-MSn.
(§1) Mouth digestion of each PC solution (1 mL) was diluted in 0.8 mL of simulated salivary fluid (SSF) and α-amylase (75 U mL-1). Then, the mixture was incubated for 2 min at 37 °C under agitation (200 rpm). In order to start gastric digestion, pH was adjusted to 3.0 using 1 M aqueous HCl and then, a pepsin solution (2000 U mL-1) and simulated gastric fluid (SGF) were added. Subsequently, the mixture was incubated for 2h, at 37 °C and 130 rpm orbital agitation for the stomach digestion. Finally, the small intestine digestion simulation was performed after pH adjustment to 7.0 using 1 M aqueous […] and the addition of pancreatin (100 U mL-1), bile salts solution (10 mM) and simulated intestinal fluid (SIF), during 2 h, at 37 °C with 45 rpm orbital agitation. Natural small intestine absorption was also simulated, by placing the remaining sample in a dialysis membrane, and immersed in distilled water overnight at room temperature.
At each sampling point, an aliquot (0.5 mL) from each of the three replicates was collected. The enzymatic activity was stopped immediately by adding pure methanol to each aliquot (1:1, v/v) to promote enzyme precipitation and subsequently centrifuged at 10 000 g and 4 °C for 5 min. The supernatants were filtered with a 0.2 μm nylon filter. To determine the concentration of each sample or control, it was considered the following dilution factor – 1:2, 1:4 and 1:8 for oral, gastric and intestinal digestion phase, respectively.
The bioaccessibility percentage (B%) of each PC was calculated using equation (1):(1) B(%)=[DS]/[IS]×100 where IS is the initial concentration of PCs in ethanol:water (15% v/v) solutions, DS is the concentration of each collected sample or control (without enzymes).
(§2) The values of B% and IA% were the average of the three replicates performed, with the calculated standard deviation.
PCs were analyzed in a UHPLC system equipped with a variable loop Accela autosampler (set at 16 °C), an Accela 600 LC pump, and an Accela 80 Hz photo diode array detector (DAD) (Thermo Fisher Scientific, San Jose, CA, USA). Each sample was prepared in methanol:water (1:1, v/v) and filtered through a 0.2 μm nylon syringe filter. […] The mobile phase was composed of acetonitrile (A) and water:acetonitrile (99:1, v/v) (B), both with 0.1 % of formic acid. The gradient elution was performed as follows: 0–1min: 99% B; 1–17 min: 99-73% B, 17–20 min: 73-0% B, 20–25 min: 0–99% B, followed by re-equilibration of the column at 99% B for 4 min.

[2] = Simulation of intestinal absorption using a dialysis membrane (3 kDa) after in vitro SGD
Source text: HPLC-grade methanol, water, and acetonitrile were supplied by Fisher Scientific Chemicals. The enzymes α-amylase (A1031), pepsin from porcine stomach mucosa (P7012), pancreatin from porcine pancreas (P7545), and bile salts (B863) were purchased from Sigma-Aldrich (Taufkirchen, Germany). The rabbit gastric extract (RGE15) with gastric lipase activity was purchased from Lipolytech (Marseille, France). The ethanol was purchased from Merck (Algés, Portugal). A dialysis membrane with a molecular pore size of 3 kDa was purchased from Spectra/Pro (Spectrum Lab, Breda, Netherlands).
as §1
Furthermore, to determine the intestinal absorption, the aliquots collected inside the dialysis membrane were analyzed. The concentration of these samples (from inside of the membrane) corresponds to the amount of each PC that has not passed through to the outside of the membrane.
as §2

Caco-2 cell monolayers = conditions: Caco-2 monolayers; cited from earlier work
[3] = design: method as in PMID 19375897; conditions: cited from earlier work
[4] = design: method as in earlier work; conditions: cited from earlier work
[5] = design: method as in doi:10.1016/J.JFF.2016.08.003; conditions: cited from earlier work
[6] = controls (without enzymes), gastric phase
[7] = controls (without enzymes), initial solution
[8] = controls (without enzymes), intestinal phase
[9] = controls (without enzymes), oral phase
[10] = samples with enzymes, after gastric digestion pH 3.0
[11] = samples with enzymes, after intestinal digestion pH 7.0
[12] = samples with enzymes, after oral digestion
[13] = samples with enzymes, gastric phase
[14] = samples with enzymes, intestinal phase
[15] = samples with enzymes, oral phase
[16] = samples, initial ethanol:water (15% v/v) solution

Compound | Bioaccessibility (%), oral phase (O) ([1]; 2 min) | Bioaccessibility (%), gastric phase (G) [1, 6] | Concentration, gastric phase (G) [1, 6] | Concentration, initial solution (IS) [1, 7] | Bioaccessibility (%), initial solution (IS) [1, 7] | Bioaccessibility (%), intestinal phase (I) [1, 8] | Concentration, intestinal phase (I) [1, 8] | Bioaccessibility (%), oral phase (O) [1, 9] | Concentration, oral phase (O) [1, 9] | Concentration, gastric phase (G) [1, 10] | Concentration, intestinal phase (I) [1, 11] | Concentration, oral phase (O) [1, 12] | Bioaccessibility (%), gastric phase (G) [1, 13] | Bioaccessibility (%), intestinal phase (I) [1, 14] | Bioaccessibility (%), oral phase (O) [1, 15] | Concentration, initial solution (IS) [1, 16] | Bioaccessibility (%), initial solution (IS) ([1]; samples, initial solution) | Concentration, dialysis phase (D) [2] | permeability class from Papp, apical-to-basolateral direction (Caco-2 cell monolayers) | also measured
O=C(CCc1ccc(O)cc1)c1c(O)cc(O)cc1O [PH, phloretin] | 96.46 ± 10.69^ a % | 91.73% and 91.73 ± 13.24 ^a,b % | 264550 ± 38180 ng/mL | 288390 ng/mL | 100 ^a,b % | 58.91% and 58.91 ± 16.19 ^b % | 169910 ± 46690 ng/mL | 111.74% and 111.74 ± 7.23^ a % | 322.24 ± 20.85 µg/mL | 210150 ± 21970 ng/mL | 148670 ± 32070 ng/mL | 278.19 ± 30.82 µg/mL | 72.87 ± 7.62 ^a,b % | 51.55% and 51.55± 11.12 ^b % | 96.46% | 288390 ng/mL | 100^ a % | 17180 ± 2010 ng/mL | low-permeable | Concentration, dialysis phase (D) ([2]; pig): 26350 ± 10090 ng/mL
O=c1c(O)c(-c2ccc(O)c(O)c2)oc2cc(O)cc(O)c12 [QUE, quercetin] | 57.23 ± 6.98^ b % | – | – | 39890 ng/mL | 100% | 17.59 ± 1.70% | 7020 ± 700 ng/mL | – | 13.64** μg mL^-1 | 2740 ± 630 ng/mL | 7330 ± 100 ng/mL | 22.83 ± 2.78 µg/mL | 6.87% and 6.87 ± 1.57^ c % | 18.36% and 18.36 ± 0.26^ c % | 57.23% | 39890 ng/mL | 100^ a % | below the detection limit | low-permeable | Intestinal absorption (IA%) [2]: very high; solubility ([3]; pH 1.5): 5.5 µg/mL (≈ 18.2 µM); solubility ([3]; pH 7.5): 28.9 µg/mL (≈ 95.6 µM)
O=c1cc(-c2ccc(O)cc2)oc2cc(O)cc(O)c12 [APG, apigenin] | 127.10 ± 1.17 ^a,b % | 15.20% and 15.20 ± 3.04 ^d % | 1420 ± 280 ng/mL | 9330 ng/mL | 100 ^c % | 158.32 ± 5.05 ^a % | 14780 ± 470 ng/mL | 134.98 ± 8.17 ^b % | 12.60 ± 0.76 µg/mL | 2580 ± 470 ng/mL | 13740 ± 1220 ng/mL | 11.86 ± 0.11 µg/mL | 27.60% and 27.60 ± 5.02^ c % | 147.20% and 147.20 ± 13.05 ^a % | 127.10% | 9330 ng/mL | 100 ^b % | – | – | bioaccessible fraction after intestinal digestion relative to the gastric phase [4]: 2 fold
C[C@@H]1O[C@@H](OC[C@H]2O[C@@H](Oc3c(-c4ccc(O)c(O)c4)oc4cc(O)cc(O)c4c3=O)[C@H](O)[C@@H](O)[C@@H]2O)[C@H](O)[C@H](O)[C@H]1O [RUT, rutin] | – | 97.20 ± 2.29 ^a,b % | 317060 ± 7460 ng/mL | 326190 ng/mL | 100 ^a,b % | 87.44 ± 5.94 ^b % | 285210 ± 19380 ng/mL | 101.57 ± 2.61^ a % | 331.30 ± 8.52 µg/mL | 320450 ± 11330 ng/mL | 265680 ± 13370 ng/mL | 281.60 ± 67.69 µg/mL | 98.24% and 98.24 ± 3.47^ a % | 81.45% and 81.45 ± 4.10^ a % | 86.33% and 86.33 ± 20.75^ a % | 326190 ng/mL | 100^ a % | – | low-permeable | formation of metabolites during in vitro SGD (UHPLC-DAD-MSn) ([1]; samples with enzymes): produced a metabolite after intestinal digestion simulation; Concentration, dialysis phase (D) ([2]; controls (without enzymes), aliquot from inside the dialysis membrane): 15120 ± 5540 ng/mL; Intestinal absorption (IA%) ([2]; controls (without enzymes), dialysis membrane): 94.75% and 94.75 ± 1.72%; Concentration, dialysis phase (D) ([2]; samples with enzymes, aliquot from inside the dialysis membrane): 22240 ± 1520 ng/mL; Intestinal absorption (IA%) ([2]; samples with enzymes, dialysis membrane): 91.63% and 91.63 ± 0.28%; percentage collected from inside of dialysis membrane ([5]; after in vitro gastrointestinal digestion): 1.65%; IA% ([5]; dialysis membrane): about 98%
